Experiments:
[1] = test system: spontaneously hypertensive rats (SHR); test: Single-dose oral administration in SHR, tail cuff blood pressure and heart rate; type: in vivo, rat; settings: single oral dose 40 mg/kg BW
Procedure: However, the relationship between ACEI and the in vivo action had to be tested. Therefore, the antihypertensive and heart rate (HR) lowering effect of milk fermented by specific L. lactis in a murine model was investigated. Spontaneously hypertensive male rats (SHR) (271±14 g) were randomized into […]: oral administration of milk fermented by L. lactis NRRL B-50571 or L. lactis NRRL B-50572 at 35 or 50 mg protein/kg of body weight (BW). Two more groups were fed with different solutions as controls: a saline solution was the negative control, meanwhile captopril (40 mg/kg BW), a proven ACE inhibitor was the positive control. Blood pressure and heart rate were monitored by the tail cuff method before treatments and 2, 4, 6 and 24 h post oral administration. […] Thus, milk fermented by specific L. lactis strains present potential benefits in the prevention and treatment of cardiovascular diseases associated to hypertension in humans. Samples of specific L. lactis fermented milk (prepared as previously described) for the single dose bioassay were obtained by centrifugation at 20,000×g for 10) min at 0° C. […] SHR were weaned for eight weeks and their systolic blood pressure monitored during this period. […] Systolic blood pressure (SBP), diastolic blood pressure (DBP) as well as heart rate (HR) were monitored before administration and 2, 4, 6 and 24 h post-administration. […]

[2] = test system: spontaneously hypertensive rats (SHR); test: Long-term (4 weeks) consumption in SHR, tail-cuff blood pressure; type: in vivo, rat
Procedure: SHR were feed ad libitum with milk fermented by L. lactis NRRL B-50571, L. lactis NRRL B-50572, captopril (40 mg/kg body weight) or purified water for four weeks. […] Additionally, milk fermented by L. lactis strains modified SHR lipid profiles. Milk fermented by L. lactis NRRL B-50571 and B-50572 was able to reduce plasma low-density lipoprotein (LDL) cholesterol by 55.4±3 mg/dL and 66.3±4 mg/dL, respectively. Thus, milk fermented by L. lactis strains may be a coadjuvant in the reduction of hypertension and hyperlipidemia and may be used as a functional food for better cardiovascular health. […] Subsequently, samples were frozen at −20° C. All fermented milk samples were daily unfrozen and homogenized (for 20 minutes before use. Thirty-two male SHR were obtained from Harlan Laboratories, Inc., (Indianapolis, Ill., USA). The rats were randomly housed in pairs per cage at 21±2° C. with 12 h light/dark cycles, 52±6% relative humidity and with ad libitum intake of a standard diet (TEKLAD, Harlan Laboratories, USA) during the experiment. SHR (27-28 weeks old and 355±24 g weight) were divided into four groups of eight rats (n=8): purified water (negative control), captopril (proven hypotensive drug, positive control) (40 mg/kg body weight (BW), milk fermented by L. lactis NRRL B-50571 and milk fermented by L. lactis NRRL 50572. All SHR had free access to each treatment during three weeks as part of the protocol. Half of the animals were sacrificed at the end of that period. The rest of the SHR only received purified water during one more week before being sacrificed. A research animal protocol was followed according to the guidelines established by the institutional (CIAD, A.C.) Ethics Committee. The lowering blood pressure effect of milk fermented by specific L. lactis strains on SHR was monitored through time. […] Systolic (SBP) and diastolic (DBP) blood pressures were measured five times on each conscious animal before treatments and every week during the experiment. […]

With C[C@H](CS)C(=O)N1CCC[C@H]1C(=O)O [captopril] the “decrease of SBP” value ([1]; 6 h, significantly different from the treatments) was “maximum decrease”, the DBP reduction ([1]; each measurement (2, 4, 6, 24 h)) was “maximum DBP reduction” and the SBP reduction ([2]; fourth week (only water in last week), fermented milk ad libitum, captopril 40 mg/kg BW) was 28.1±1.8 mm Hg. For the same compound, the “effect on SBP” value ([2]; second and third week) was “marked lowering-effect” and the DBP reduction ([2]; second week, fermented milk ad libitum, captopril 40 mg/kg BW) was 38.4±8.5 mm Hg.

— patent publication US10864246B2, “Method for lowering triglyceride” (Centro De Investigación En Alimentación Y Desarrollo, A.C. …, priority 2011, dated 2020)
